Data published in US7662767B2, “Polynucleotide intercalator interceptors and inhibitors” (Materials Evolution and Development USA, Inc., priority 2000, dated 2010).

Key:
[1] = test system: apChromatin (depurinated chicken erythrocyte nuclear chromatin); assay: Acridine orange staining after acid hydrolysis of dsDNA to apurinic acid, fluorescence microscopy; assay type: binding
Method: Depurination of dsDNA within the nuclear chromatin of chicken erythrocytes was accomplished by using a modification of the Feulgen method (Feulgen and Rossenbeck, 1924). Specifically, the nucleated chicken erythrocyte slide preparations were rinsed in a 1 N solution of HCl at room temperature for 60 seconds. This was followed by placement of the slide in a pre-heated (55° C.) solution of 1 N HCl for 10 minutes under static conditions followed by several rinses in distilled water at room temperature. Slides were allowed to dry at room temperature then stained with AO at two different concentrations, one at 5 mM and the other at 10 μM for 15 min and 2 min, respectively. The depurination of DNA was expected to remove the site on the DNA polymer where AO intercalation can occur.
Solutions of AO were prepared at 5 mM and 10 μM concentrations in distilled water. […] Processed slides were stored in the dark then read and photomicrographs taken (Zeiss Model 63 Microscope, 1600 ASA Kodak film) soon after removal from the dark to avoid photobleaching.
In the example shown in Table 4-1, the chicken erythrocytes were smeared and dried on a microscope slide prior to exposure to two different concentrations of AO (10 μM and 5 mM), rinsed with distilled water, and allowed to dry. Erythrocytes were examined with fluorescence microscopy and the color of the nuclei recorded. […]

[2] = test system: Drosophila salivary gland polytene chromosome; assay: Removal of DNA binding stains from polytene chromosome bands by xanthine wash; set-up: species or system Drosophila melagaster; details: for Degree of Stain Removal, Exposure to AM (100 mM) / Degree of Stain Removal, Exposure to CAF (100 mM): 15 minute wash, static, hydrochloride
Method: In another implementation, giant polytene chromosomes were prepared by the squash technique from the salivary gland of Drosophila melagaster larva The salivary gland was placed on a microscope slide, squashed with a glass cover slide, fixed with acidic acid, rinsed with distilled water, and allowed to dry (kindly provided by Linda Chadwell, UTHSCSA-IBT). Three known DNA intercalators, ethidium bromide (98% purity, Aldrich Chemical Company, Milwaukee, Wis.), doxorubicin (98%, Sigma Chemnical Company, St. Louis, Mo.), and acridine orange plus the minor groove binding DNA stain Hoechst 33258 (98%, ACROS Chemical Company, NJ) were prepared in distilled water at a concentration of 1 mM (for chemical structures see FIG. 4-1, where acridine orange (3,6-bis [dimethylamino] acridine) is shown in Panel A, ethidium bromide is shown in Panel B, doxorubicin is shown in Panel C, Hoechst 33258 is shown in Panel D). The slides with prepared chromosomes were immersed in these stains for a period of 30 minutes, rinsed with distilled water, and dried at room temperature. Fluorescence microscopic analysis was conducted at λex 360 nm and photomicrographs were conducted on a Zeiss Model 63 Microscope with a xenon source fluorescent emitter. Photomicrographs were taken using Kodak Gold 35 mm ASA 1600 speed film noting the position of one individual chromosome on the slide. The stained slides were then subjected to 100 mM caffeine or 100 mM aminophylline under static conditions for a period of 15 minutes, rinsed with distilled water, then allowed to dry at room temperature. The presence of the same individual unstained chromosome in the field was confirmed by phase contrast microscopy. The chromosome was viewed again under fluorescence microscopy at […], and color recorded. Slides were re-stained by immersion in the 1 mM stain for a period of 30 minutes, rinsed with distilled water, and dried at room temperature, and the same individual chromosome was examined by fluorescence microscopy and the fluorescence color recorded.
FIG. 4-3 depicts three photomicrographs of the same Drosophila polytene chromosome: after staining with the DNA minor groove binder Hoechst 33258 dye (Panel A), after rinsing with CAF for 15 minutes (Panel B), and a phase contrast verification of the presence of the chromosome after the CAF rinse (Panel C). Table 4-4 summarizes the results from the experiments using caffeine (CAF) and aminophylline (AM) to remove the following DNA intercalators: doxorubicin, ethidium bromide, acridine orange, and the DNA minor groove binder Hoechst 33258 from their binding sites within polytene chromosomes. […] With all DNA intercalators, the staining of chromosome bands was intense before the xanthine rinses and was again intense following re-staining.

Re-staining following Xanthine Exposure ([2]; 1 mM stain, 30 minutes): Complete
Staining before Xanthine Exposure ([2]; 1 mM stain, 30 minutes): Banding
Degree of Stain Removal, Exposure to AM (100 mM) [2]: completely removed
Degree of Stain Removal, Exposure to CAF (100 mM) [2]: did not completely remove the stain
Degree of Stain Removal, Exposure to AM (100 mM) ([2]; listed as Acridine Orange): Complete
Degree of Stain Removal, Exposure to CAF (100 mM) ([2]; listed as Acridine Orange): Almost
Structure (SMILES): CN(C)c1ccc2cc3ccc(N(C)C)cc3nc2c1.Cl [AO, 3,6-bis[dimethylamino]acridine hydrochloride]
Fluorescent Color ([1]; AO 10 μM): No Color
Fluorescent Color ([1]; AO 5 mM): Red
